Measured values as given in patent publication US8834841B2, “Imaging agents” (priority 2005, dated 2014).

How the values were obtained:
U87 glial blastoma = assay: in vitro amino acid uptake, U87 cells; type: cell-based, human
Excerpt: The inventive compounds have been evaluated in vitro for tumor binding specificity (i.e. uptake cells) using a variety of tumor cell lines available in the art, along with reference compounds such as Me-AIB and BCH. Detailed description of these assays can be found in Martarello et al. (2002) Journal of Medicinal Chemistry, 45:2250-2259 and McConathy et al. (2003) Nuclear Medicine and Biology, 30:477-490. These, so called “amino acid uptake studies” are typically carried out with radiolabeled compounds in at least five phenotypically different human tumor cell lines (e.g. A549 lung carcinoma, MB468 breast carcinoma, DU145 prostate carcinoma, SKOV3 ovarian carcinoma, and U87 glial blastoma). These tumor cell lines can be grown either in vitro or in vivo with severe combined immunodeficiency (SCID) mice as a host. The fore-mentioned tumor cell lines are available at the Winship Cancer Institute of Emory University.
For the in vitro amino acid uptake studies, all cells can be grown to monolayer confluency in T-175 culture flasks [Corning, Corning, N.Y.] (approx. 1×10^8 cells/flask) in Dulbecco's Modified Eagle's Medium (DMEM) [Sigma, St. Louis, Mo.] in a humidified incubator (37° C., 5% CO2/95% air). Media are supplemented with 10% fetal calf serum [Hyclone, Logan, Utah], and antibiotics (10,000 U/ml penicillin and 10 mg/ml streptomycin) (Sigma, St. Louis, Mo.). For tissue culture passage, monolayer cells are detached by gentle trypsinization, resuspended in complete media, and split 1:10 into new T-flasks. […]
(§1) In the in vitro studies the uptake rate of each amino acid compound is measured in each tumor line, as well as the dominant transport mechanisms of each tumor cell line. After trypsinization, cells are resuspended in serum-free media, then counted on a hemocytometer, with viability assessed through Trypan blue staining. […] The vials are placed in a Cobra-II gamma counter (Packard, Meriden, Conn.), with the activity per cell number determined. […] Saline washes are performed as described above, and the filtered cells radioactivity determined on the gamma counter. […]

[1] = test system: type “L” type large-neutral amino acid transport system; assay: in vitro uptake studies in human tumor cells, summary; type: cell-based; conditions: U87, DU145, A549, SKOV3, MB468 cells (Table 1)
Excerpt: The inventive compounds have been evaluated in vitro for tumor binding specificity (i.e. uptake cells) using a variety of tumor cell lines available in the art, along with reference compounds such as Me-AIB and BCH. Detailed description of these assays can be found in Martarello et al. (2002) Journal of Medicinal Chemistry, 45:2250-2259 and McConathy et al. (2003) Nuclear Medicine and Biology, 30:477-490. These, so called “amino acid uptake studies” are typically carried out with radiolabeled compounds in at least five phenotypically different human tumor cell lines (e.g. A549 lung carcinoma, MB468 breast carcinoma, DU145 prostate carcinoma, SKOV3 ovarian carcinoma, and U87 glial blastoma). These tumor cell lines can be grown either in vitro or in vivo with severe combined immunodeficiency (SCID) mice as a host. […]
as §1

With NC1(C(=O)O)CCC1[18F] [Anti-R,S 2-[^18F]FACBC, (R,S) anti-1-amino-2-[^18F]fluorocyclobutyl-1-carboxylic acid] the “% Dose Uptake/0.5e6 Cells” value (U87 glial blastoma; U87, No inhibitor) was 8.28 +/− 0.45 % Dose Uptake/0.5e6 Cells, the “% Dose Uptake/0.5e6 Cells” value (U87 glial blastoma; U87, inhibitor BCH (10 mM)) was 2.48 +/− 0.23 % Dose Uptake/0.5e6 Cells and the “% Dose Uptake/0.5e6 Cells” value (U87 glial blastoma; U87, inhibitor MeAlB (10 mM)) was 5.41 +/− 0.64 % Dose Uptake/0.5e6 Cells. For the same compound, the “uptake by the type “L” type large-neutral amino acid transport system” value [1] was “high uptake”.
